Laboratory results from ChEMBL document CHEMBL4339235, “Guitarrins A-E and Aluminumguitarrin A: 5-Azaindoles from the Northwestern Pacific Marine Sponge Guitarra fimbriata” (J Nat Prod, 2019).

Assay: Inhibition of Cobetia marina ALP using pNPP as substrate; call rule not given here

| IC50 (read-out: IC50) [µM] | IC50 | SMILES |
| --- | --- | --- |
| 2 |  | O=C(O)c1cc2[nH]ccc2c(CO)n1 |
| 100 |  | O=C(O)c1nc(CO)c2cc[nH]c2c1O |
|  | Not Active | O=C(O)c1nccc2[nH]ccc12 |
|  | Not Active | O=C(O)CCCc1nccc2[nH]ccc12 |
|  | Not Active | OCc1nccc2[nH]ccc12 |
